A short description of this data set: Henry solubility constant Hcp at 298.15 K (mol/(m3 Pa)). As to conditions: reference: Hoff et al. (1993).

SMILES strings stand for the structures.

Consider `CC(Cl)(Cl)Cl` [1,1,1-trichloroethane], for which the “Henry solubility constant Hcp” value is 0.00053. On to `Clc1cccc(Cl)c1` [1,3-dichlorobenzene], for which the “Henry solubility constant Hcp” value was determined as 0.0034. Regarding `c1ccccc1` [benzene], the “Henry solubility constant Hcp” value stood at 0.0017. Turning to `Clc1ccccc1` [chlorobenzene], the “Henry solubility constant Hcp” value is 0.0026. Then `ClCCl` [dichloromethane], with 0.0041. With `Cc1ccccc1` [methylbenzene], the “Henry solubility constant Hcp” value came out at 0.0013.

Consider `CC(C)=O` [propanone], for which the “Henry solubility constant Hcp” value came out at 0.27.

For the molecule `ClC(Cl)=C(Cl)Cl` [tetrachloroethene], the “Henry solubility constant Hcp” value came to 0.00063. Then `ClC(Cl)(Cl)Cl` [tetrachloromethane], with 0.00036; and `ClC=C(Cl)Cl` [trichloroethene], with 0.0011.

For the origin of these results see Sander's compilation of Henry's law constants (doi:10.1021/es00047a026).
